Legend:
[1] = biological target: T1, recombinant human Lp-PLA2 (Homo sapiens, UniProt Q13093); experiment: (1a) PED6 assay, recombinant human Lp-PLA2 (rhLp-PLA2); assay type: biochemical; conditions: Examples 1-167 and 413-430 were tested here, one experiment or average of multiple experiments, read-out: rhLp-PLA2 (pIC50) (converted)
T1 sequence (Q13093 22-441): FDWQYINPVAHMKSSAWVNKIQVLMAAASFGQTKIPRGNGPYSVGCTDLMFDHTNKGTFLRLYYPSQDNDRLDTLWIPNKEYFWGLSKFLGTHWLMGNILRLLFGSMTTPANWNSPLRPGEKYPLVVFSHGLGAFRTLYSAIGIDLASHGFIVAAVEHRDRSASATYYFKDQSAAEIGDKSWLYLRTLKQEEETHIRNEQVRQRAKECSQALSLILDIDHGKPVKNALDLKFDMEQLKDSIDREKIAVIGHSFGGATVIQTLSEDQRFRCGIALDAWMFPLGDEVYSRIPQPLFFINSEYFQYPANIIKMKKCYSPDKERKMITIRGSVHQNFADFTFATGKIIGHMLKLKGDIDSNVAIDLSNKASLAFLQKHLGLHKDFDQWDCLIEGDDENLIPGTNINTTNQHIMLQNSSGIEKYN
Procedure, shortened: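 PED6 (2 μM final after 1:1 addition of 4 μM stock) cleavage by rhLp-PLA2 (4 nM working solution) in 50 mM HEPES pH 7.4, 150 mM NaCl, 1 mM CHAPS; compounds preincubated with enzyme 30 minutes, reaction 20 min at room temperature. Fluorescence at ex 480/em 540; pIC50 from curve fit.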

Lp-PLA2 in human plasma = biological target: T2, Lp-PLA2 in human plasma (Homo sapiens, UniProt Q13093); experiment: (3a) Lp-PLA2 human plasma Thio-PAF assay; assay type: biochemical; conditions: (3a) Thio-PAF assay, pooled human plasma; Examples 1-265 and 413-430 were tested here; read-out: pIC50 in the Lp-PLA2 human plasma assay (converted)
T2 construct: from tissue; host or cells: pooled human plasma
T2 sequence (Q13093 22-441): T1 sequence (Q13093 22-441)
Procedure, shortened: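 Pooled human plasma preincubated 30 min with serially diluted compound, then given 2-thio-PAF substrate with CPM and NEM in 50 mM HEPES pH 7.4, 150 mM NaCl, 1 mM CHAPS. Reaction quenched with TFA after 2 min; CPM thiol-adduct fluorescence read at ex 380/em 485 after 40 min; pIC50 reported.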

| SMILES | IC50 [1] | IC50 (Lp-PLA2 in human plasma) |
| --- | --- | --- |
| O=c1nc(OCc2ccc(Oc3ccc(F)c(C(F)(F)F)c3)nc2)cc2n1C[C@@H]1CCCN21 [Example E84, (S)-3-((6-(4-fluoro-3-(trifluoromethyl)phenoxy)pyridin-3-yl)methoxy)-7,8,8a,9-tetrahydro pyrrolo[1′,2′:3,4]imidazo[1,2-c]pyrimidin-1(6H)-one] | ≤ 100 nM | ≤ 10 µM |
| N#Cc1cc(COc2cc3n(c(=O)n2)CC2CCCN32)ccc1Oc1cccc(F)c1 (centres unmarked) [Example E85, 2-(3-fluorophenoxy)-5-(((1-oxo-1,6,7,8,8a,9-hexahydropyrrolo[1,2′:3,4]imidazo[1,2-c]pyrimidin-3-yl)oxy)methyl)benzonitrile] | ≤ 1 nM | ≤ 0.1 µM |
| N#Cc1cc(COc2cc3n(c(=O)n2)C[C@@H]2CCCN32)ccc1Oc1cccc(F)c1 [Example E86, (S)-2-(3-fluorophenoxy)-5-(((1-oxo-1,6,7,8,8a,9-hexahydropyrrolo[1′,2′:3,4]imidazo[1,2-c]pyrimidin-3-yl)oxy)methyl)benzonitrile] | ≤ 100 nM | ≤ 10 µM |
| N#Cc1cc(COc2cc3n(c(=O)n2)CC2CCCN32)ccc1Oc1cc(F)cc(F)c1 (centres unmarked) [Example E87, 2-(3,5-Difluorophenoxy)-5-(((1-oxo-1,6,7,8,8a,9-hexahydropyrrolo[1,2′:3,4]imidazo[1,2-c]pyrimidin-3-yl)oxy)methyl)benzonitrile] | ≤ 1 nM | ≤ 0.1 µM |
| N#Cc1cc(COc2cc3n(c(=O)n2)C[C@@H]2CCCN32)ccc1Oc1cc(F)cc(F)c1 [Example E88, (S)-2-(3,5-difluorophenoxy)-5-(((1-oxo-1,6,7,8,8a,9-hexahydropyrrolo[1′,2′:3,4]imidazo[1,2-c]pyrimidin-3-yl)oxy)methyl)benzonitrile] | ≤ 1 nM | ≤ 10 µM |
| O=c1nc(OCc2cc(F)c(Oc3cnc(C(F)(F)F)nc3)c(F)c2)cc2n1CC1CCCN21 (centres unmarked) [Example E90, 3-((3,5-Difluoro-4-((2-(trifluoromethyl)pyrimidin-5-yl)oxy)benzyl)oxy)-7,8,8a,9-tetrahydro pyrrolo[1′,2′:3,4]imidazo[1,2-c]pyrimidin-1(6H)-one] | ≤ 1 nM | ≤ 0.1 µM |
| O=c1nc(OCc2cc(F)c(Oc3cnc(C(F)(F)F)nc3)c(F)c2)cc2n1C[C@@H]1CCCN21 [Example E91, (S)-3-((3,5-difluoro-4-((2-(trifluoromethyl)pyrimidin-5-yl)oxy)benzyl)oxy)-7,8,8a,9-tetra hydropyrrolo[1′,2′:3,4]imidazo[1,2-c]pyrimidin-1(6H)-one] | ≤ 1 nM | ≤ 0.1 µM |
| O=c1nc(NCc2cccc(F)c2)cc2n1C[C@H]1CCCN21 [Example E104, (R)-3-((3-fluorobenzyl)amino)-7,8,8a,9-tetrahydropyrrolo[1′,2′:3,4]imidazo[1,2-c]pyrimidin-1(6H)-one] | ≤ 100 nM | ≤ 10 µM |
| O=c1nc(OCc2cc(F)c(Oc3ccnc(C(F)(F)F)c3)c(F)c2)cc2n1CC1COCCN21 (centres unmarked) [Example E107, 7-((3,5-Difluoro-4-((2-(trifluoromethyl)pyridin-4-yl)oxy)benzyl)oxy)-3,4, 11, 11a-tetra hydropyrimido[6′,1′:2,3]imidazo[5,1-c][1,4]oxazin-9(1H)-one] | 0.0398 nM | ≤ 0.1 µM |
| Cn1cc(Oc2c(F)cc(COc3cc4n(c(=O)n3)CC3COCCN43)cc2F)cn1 (centres unmarked) [Example E108, 7-((3,5-Difluoro-4-((1-methyl-1H-pyrazol-4-yl)oxy)benzyl)oxy)-3,4,11,11a-tetrahydro pyrimido[6′,1′:2,3]imidazo[5,1-c][1,4]oxazin-9(1H)-one] | ≤ 100 nM | ≤ 0.1 µM |

The next lines start with the values.

| IC50 [1] | IC50 (Lp-PLA2 in human plasma) | SMILES |
| --- | --- | --- |
| ≤ 100 nM | ≤ 10 µM | O=c1nc(OCc2cc(F)c(F)c(F)c2)cc2n1CC1CCCN21 (centres unmarked) [Example E89, 3-((3,4,5-Trifluorobenzyl)oxy)-7,8,8a,9-tetrahydropyrrolo[1′,2′:3,4]imidazo[1,2-c] pyrimidin-1(6H)-one] |
| ≤ 100 nM | ≤ 10 µM | O=c1nc(OCc2cc(F)c(OC3CCCC(F)(F)C3)c(F)c2)cc2n1CC1CCCN21 (centres unmarked) [Example E92, 3-((4-((3,3-difluorocyclohexyl)oxy)-3,5-difluorobenzyl)oxy)-7,8,8a,9-tetrahydropyrrolo[1′,2′:3,4]imidazo[1,2-c]pyrimidin-1(6H)-one] |
| ≤ 100 nM | ≤ 10 µM | O=c1nc(OCc2cc(F)c(OC3CCCC(F)(F)C3)c(F)c2)cc2n1C[C@@H]1CCCN21 (stereo partly drawn) [Example E93, (S)-3-((4-((3,3-difluorocyclohexyl)oxy)-3,5-difluorobenzyl)oxy)-7,8,8a,9-tetrahydropyrrolo[1′,2′:3,4]imidazo[1,2-c]pyrimidin-1(6H)-one] |
| ≤ 100 nM | ≤ 10 µM | O=c1nc(OCc2cc(F)c(OC3CCC(F)(F)C3)c(F)c2)cc2n1CC1CCCN21 (centres unmarked) [Example E94, 3-((4-((3,3-difluorocyclopentyl)oxy)-3,5-difluorobenzyl)oxy)-7,8,8a,9-tetrahydropyrrolo[1′,2′:3,4]imidazo[1,2-c]pyrimidin-1(6H)-one] |
| ≤ 100 nM | ≤ 10 µM | O=c1nc(OCc2cc(F)c(OC3CCC(F)(F)C3)c(F)c2)cc2n1C[C@@H]1CCCN21 (stereo partly drawn) [Example E95, (S)-3-((4-((3,3-difluorocyclopentyl)oxy)-3,5-difluorobenzyl)oxy)-7,8,8a,9-tetrahydropyrrolo[1′,2′:3,4]imidazo[1,2-c]pyrimidin-1(6H)-one] |
| ≤ 100 nM | ≤ 10 µM | O=c1nc(OCc2cc(F)c(OC3CN(CCC(F)(F)F)C3)c(F)c2)cc2n1CC1CCCN21 (centres unmarked) [Example E96, 3-((3,5-Difluoro-4-((1-(3,3,3-trifluoropropyl)azetidin-3-yl)oxy)benzyl)oxy)-7,8,8a,9-tetrahy dropyrrolo[1′,2′:3,4]imidazo[1,2-c]pyrimidin-1(6H)-one] |
| ≤ 100 nM | ≤ 10 µM | O=c1nc(OCc2cc(F)c(OC3CN(CCC(F)(F)F)C3)c(F)c2)cc2n1C[C@@H]1CCCN21 [Example E97, (S)-3-((3,5-difluoro-4-((1-(3,3,3-trifluoropropyl)azetidin-3-yl)oxy)benzyl)oxy)-7,8,8a,9-tetra hydropyrrolo[1′,2′:3,4]imidazo[1,2-c]pyrimidin-1(6H)-one] |
| ≤ 100 nM | ≤ 10 µM | CCCCN1CC(Oc2c(F)cc(COc3cc4n(c(=O)n3)CC3CCCN43)cc2F)C1 (centres unmarked) [Example E98, 3-((4-((1-Butylazetidin-3-yl)oxy)-3,5-difluorobenzyl)oxy)-7,8,8a,9-tetrahydropyrrolo[1′,2′:3,4]imidazo[1,2-c]pyrimidin-1(6H)-one] |
| ≤ 100 nM | ≤ 10 µM | O=c1nc(OCc2cc(F)c(CCCF)c(F)c2)cc2n1CC1CCCN21 (centres unmarked) [Example E99, 3-((3,5-Difluoro-4-(3-fluoropropyl)benzyl)oxy)-7,8,8a,9-tetrahydropyrrolo[1′,2′:3,4] imidazo[1,2-c]pyrimidin-1(6H)-one] |
| ≤ 100 nM | ≤ 10 µM | O=c1nc(OCc2ccc(F)cc2F)cc2n1C[C@H]1CCCN21 [Example E100, (R)-3-((2,4-difluorobenzyl)oxy)-7,8,8a,9-tetrahydropyrrolo[1,2′:3,4]imidazo[1,2-c] pyrimidin-1(6H)-one] |
| ≤ 100 nM | ≤ 10 µM | O=c1nc(OCc2cccc(F)c2F)cc2n1C[C@H]1CCCN21 [Example E101, (R)-3-((2,3-difluorobenzyl)oxy)-7,8,8a, 9-tetrahydropyrrolo[1′, 2′:3, 4]imidazo[1,2-c] pyrimidin-1(6H)-one] |
| ≤ 100 nM | ≤ 10 µM | O=c1nc(OCc2cccc(F)c2)cc2n1C[C@H]1CCCN21 [Example E102, (R)-3-((3-fluorobenzyl)oxy)-7,8,8a,9-tetrahydropyrrolo[1′,2′:3,4]imidazo[1,2-c]pyrimidin-1(6H)-one] |
| ≤ 100 nM | ≤ 10 µM | O=c1nc(OCc2cc(F)cc(F)c2)cc2n1C[C@H]1CCCN21 [Example E103, (R)-3-((3,5-difluorobenzyl)oxy)-7,8,8a,9-tetrahydropyrrolo[1,2′:3,4]imidazo[1,2-c] pyrimidin-1(6H)-one] |
| ≤ 100 nM | ≤ 10 µM | O=c1nc(OCc2cc(F)c(OC3(CCF)CC3)c(F)c2)cc2n1C[C@H]1CCCN21 [Example E105, (R)-3-((3,5-difluoro-4-(1-(2-fluoroethyl)cyclopropoxy)benzyl)oxy)-7,8,8a,9-tetrahydro pyrrolo[1′,2′:3,4]imidazo[1,2-c]pyrimidin-1(6H)-one] |
| ≤ 100 nM | ≤ 10 µM | Cc1cc(Oc2c(F)cc(COc3cc4n(c(=O)n3)C[C@H]3CCCN43)cc2F)ccn1 [Example E106, (R)-3-((3,5-difluoro-4-((2-methylpyridin-4-yl)oxy)benzyl)oxy)-7,8,8a,9-tetrahydro pyrrolo[1′,2′:3,4]imidazo[1,2-c]pyrimidin-1(6H)-one] |

From patent publication US11999746B2, “Compounds” (GlaxoSmithKline Intellectual Property Development Limited, priority 2014, dated 2024)
